Source: patent US20120046457A1, “PREPARATION OF DECITABINE” (DR. REDDY'S LABORATORIES, INC., priority 2009, published 2012)

Columns and labels:
[1] = cited from earlier work
[2] = Hygroscopicity of decitabine (hygroscopic stability); type: physicochemical; settings: for Moisture (Wt. %): room temperature
Protocol: Decitabine obtained from Example 10 is tested for hygroscopic stability. Samples are analyzed as initially prepared, and at intervals after 1 day and 7 days of storage at room temperature; the results are tabulated below.

[3] = Storage stability of packaged anhydrous crystalline decitabine (TGA weight loss); type: physicochemical; settings: 40±2° C., relative humidity 75±5%, described packaging
Protocol: Thermogravimetric analyses reported herein for decitabine were carried out using a SHIMADZU, DTG-60, Thermogravimetric Analyzer with a ramp of 10° C./minute up to 250° C.
In embodiments, the present application provides a storage system for decitabine. A storage system of the present application comprises at least one sealed polymeric bag, (e.g., a transparent or opaque polyethylene bag having a thickness of about 0.1 mm to about 0.5 mm) or a combination of such bags, which, if desired, may be sealed inside a laminated aluminum bag. An oxygen absorbent and a moisture absorbent (or desiccant), may be included between one or more of such bags. Finally, the packaged material is stored in sealed HDPE containers.
Anhydrous crystalline decitabine with an initial XRD pattern substantially in accordance with FIG. 4 remains stable for a period at least about 4 months, or about 6 months, when stored at 40±2° C. and a relative humidity of 75±5% under the packaging conditions described above. The TGA weight losses of representative samples stored under these conditions are tabulated below.

Compound | stability ([1]; room temperature) | moisture at equilibrium ([1]; exposed to humidity, monohydrate formed) | Moisture (Wt. %) ([2]; 40-50% RH, 1 day) | Moisture (Wt. %) ([2]; 40-50% RH, 7 days) | Moisture (Wt. %) ([2]; 40-50% RH, initial) | Moisture (Wt. %) ([2]; 90% RH, 1 day) | Moisture (Wt. %) ([2]; 90% RH, 7 days) | Moisture (Wt. %) ([2]; 90% RH, initial) | moisture content acquired ([2]; exposed to the atmosphere) | solid form after moisture uptake ([2]; exposed to the atmosphere) | period for which it remains stable [3] | TGA Weight Loss (%) ([3]; storage time 1 month) | TGA Weight Loss (%) ([3]; storage time 2 months) | TGA Weight Loss (%) ([3]; storage time 3 months) | TGA Weight Loss (%) ([3]; storage time 4 months)
Nc1ncn([C@H]2C[C@H](O)[C@@H](CO)O2)c(=O)n1 [Decitabine monohydrate] | stable | – | – | – | – | – | – | – | – | – | – | – | – | – | –
Nc1ncn([C@H]2C[C@H](O)[C@@H](CO)O2)c(=O)n1 [Decitabine, 4-amino-1-(2-deoxy-β-D-erythropentofuranosyl)-1,3,5-triazin-2(1H)-one] | – | 7% | 6.63 Wt. % | 7.12 Wt. % | 0.18 Wt. % | 5.46 Wt. % | 7.17 Wt. % | 0.18 Wt. % | up to 1 mole | change to a monohydrate form | at least 4 months | 0.07% | 0.15% | 0.26% | 0.16%
